From article PMC8318231, “Rate-of-Kill (RoK) assays to triage large compound sets for Chagas disease drug discovery: Application to GSK Chagas Box” (PLoS Neglected Tropical Diseases, 2021)
Several values for one entry are separate records, joined by “and”; a condition that tells them apart may be missing. Identical values can stand only once.

System: T. cruzi intracellular amastigotes in H9c2 cells
Assay: RoK combination assay with BNZ
Format: cell-based, Trypanosoma cruzi
Description: The assay was performed following the same experimental procedure mentioned above in the RoK assay. The infected H9c2 cells were treated with final 10 and 50 μM concentrations of BNZ and DMSO before being dispensed into the plates containing the compounds. For the combination with 50 μM BNZ, two plates were incubated for 4 and 24 hours respectively before being fixed. For the combinations with 10 μM BNZ and with DMSO, four plates for each condition were incubated for 4, 24, 48 and 72 hours before being fixed.

**Q.** `O=C(Cn1ccnc1[N+](=O)[O-])NCc1ccccc1` [BNDZ 10] was tested. Which AM/CELL (combo BNDZ 10 with unnamed compound at Concentration 16.6667, time 4) did it give?
**A.** 2.035 and 2.023

**Q.** What about the AM/CELL (combo BNDZ 10 with unnamed compound at Concentration 16.6667, time 24) of the same molecule?
**A.** 1.123 and 1.3558

**Q.** What about the AM/CELL (combo BNDZ 10 with unnamed compound at Concentration 16.6667, time 48) of the same molecule?
**A.** 0.3934 and 0.4677

**Q.** What about the AM/CELL (combo BNDZ 10 with unnamed compound at Concentration 16.6667, time 72) of the same molecule?
**A.** 0.5411 and 0.6092

**Q.** And the AM/CELL (combo BNDZ 10 with unnamed compound at Concentration 50, time 4)?
**A.** 1.931 and 1.78

**Q.** What about the AM/CELL (combo BNDZ 10 with unnamed compound at Concentration 50, time 24) of the same molecule?
**A.** 0.8406 and 1.092

**Q.** And the AM/CELL (combo BNDZ 10 with unnamed compound at Concentration 50, time 48)?
**A.** 0.412 and 0.3872

**Q.** And the AM/CELL (combo BNDZ 10 with unnamed compound at Concentration 50, time 72)?
**A.** 0.6445 and 0.5238
